Data as given in ChEMBL document CHEMBL3797052 (Eur J Med Chem, 2016).

Tested on: not listed separately
Test: Cytotoxicity against human HCT116 cells assessed as growth inhibition at 100 uM after 2 days by MTT assay
Type: functional
Details: HCT-116, 48 h, read-out: GI
`CNC(=O)c1cc(Oc2ccc3nc(NC(=O)c4cc(C(F)(F)F)cc(C(F)(F)F)c4)sc3c2)ccn1` showed an inhibition of growth at 100 µM of 76.9%.

Tested on: not listed separately
Test: Cytotoxicity against human HCT116 cells assessed as growth inhibition at 10 uM after 2 days by MTT assay
Type: functional
Details: HCT-116, 48 h, read-out: GI
`CNC(=O)c1cc(Oc2ccc3nc(NC(=O)c4cc(C(F)(F)F)cc(C(F)(F)F)c4)sc3c2)ccn1` gave an inhibition of growth at 10 µM of 16.8%.

Tested on: not listed separately
Test: Cytotoxicity against human SKBR3 cells assessed as growth inhibition at 100 uM after 2 days by MTT assay
Type: functional
Details: SK-BR-3, 48 h, read-out: GI
Compound `CNC(=O)c1cc(Oc2ccc3nc(NC(=O)c4cc(C(F)(F)F)cc(C(F)(F)F)c4)sc3c2)ccn1` has an inhibition of growth at 100 µM of 80.4%.

Tested on: not listed separately
Test: Cytotoxicity against human SKBR3 cells assessed as growth inhibition at 10 uM after 2 days by MTT assay
Type: functional
Details: SK-BR-3, 48 h, read-out: GI
`CNC(=O)c1cc(Oc2ccc3nc(NC(=O)c4cc(C(F)(F)F)cc(C(F)(F)F)c4)sc3c2)ccn1` gave an inhibition of growth at 10 µM of 8.56%.

Tested on: not listed separately
Test: Antiproliferative activity against human MOLT4 cells assessed as cell growth at 10^-5 M after 48 hrs by sulforhodamine B assay
Type: functional
Details: MOLT-4, 48 h, read-out: Activity
For `CNC(=O)c1cc(Oc2ccc3nc(NC(=O)c4cc(C(F)(F)F)cc(C(F)(F)F)c4)sc3c2)ccn1`, the growth at 10 µM was 1%.

Tested on: not listed separately
Test: Antiproliferative activity against human RPMI8226 cells assessed as cell growth at 10^-5 M after 48 hrs by sulforhodamine B assay
Type: functional
Details: RPMI-8226, 48 h, read-out: Activity
Compound `CNC(=O)c1cc(Oc2ccc3nc(NC(=O)c4cc(C(F)(F)F)cc(C(F)(F)F)c4)sc3c2)ccn1` has a growth at 10 µM of 10%.

Tested on: A549
Test: Antiproliferative activity against human A549/ATCC cells assessed as cell growth at 10^-5 M after 48 hrs by sulforhodamine B assay
Type: functional
Details: A549, 48 h, read-out: Activity
Compound `CNC(=O)c1cc(Oc2ccc3nc(NC(=O)c4cc(C(F)(F)F)cc(C(F)(F)F)c4)sc3c2)ccn1` has a growth at 10 µM of 13%.

Tested on: not listed separately
Test: Antiproliferative activity against human HOP62 cells assessed as cell growth at 10^-5 M after 48 hrs by sulforhodamine B assay
Type: functional
Details: HOP-62, 48 h, read-out: Activity
Work on `CNC(=O)c1cc(Oc2ccc3nc(NC(=O)c4cc(C(F)(F)F)cc(C(F)(F)F)c4)sc3c2)ccn1` yielded a growth at 10 µM of 2%.

Tested on: not listed separately
Test: Antiproliferative activity against human HOP92 cells assessed as cell growth at 10^-5 M after 48 hrs by sulforhodamine B assay
Type: functional
Details: HOP-92, 48 h, read-out: Activity
In the case of `CNC(=O)c1cc(Oc2ccc3nc(NC(=O)c4cc(C(F)(F)F)cc(C(F)(F)F)c4)sc3c2)ccn1`, the growth at 10 µM was -11%.

Tested on: NCI-H226
Test: Antiproliferative activity against human NCI-H226 cells assessed as cell growth at 10^-5 M after 48 hrs by sulforhodamine B assay
Type: functional
Details: NCI-H226, 48 h, read-out: Activity
Work on `CNC(=O)c1cc(Oc2ccc3nc(NC(=O)c4cc(C(F)(F)F)cc(C(F)(F)F)c4)sc3c2)ccn1` yielded a growth at 10 µM of 19%.

Tested on: NCI-H460
Test: Antiproliferative activity against human NCI-H460 cells assessed as cell growth at 10^-5 M after 48 hrs by sulforhodamine B assay
Type: functional
Details: NCI-H460, 48 h, read-out: Activity
Compound `CNC(=O)c1cc(Oc2ccc3nc(NC(=O)c4cc(C(F)(F)F)cc(C(F)(F)F)c4)sc3c2)ccn1` has a growth at 10 µM of 14%.

Tested on: NCI-H522
Test: Antiproliferative activity against human NCI-H522 cells assessed as cell growth at 10^-5 M after 48 hrs by sulforhodamine B assay
Type: functional
Details: NCI-H522, 48 h, read-out: Activity
`CNC(=O)c1cc(Oc2ccc3nc(NC(=O)c4cc(C(F)(F)F)cc(C(F)(F)F)c4)sc3c2)ccn1` gave a growth at 10 µM of -6%.

Tested on: not listed separately
Test: Antiproliferative activity against human COLO205 cells assessed as cell growth at 10^-5 M after 48 hrs by sulforhodamine B assay
Type: functional
Details: COLO 205, 48 h, read-out: Activity
`CNC(=O)c1cc(Oc2ccc3nc(NC(=O)c4cc(C(F)(F)F)cc(C(F)(F)F)c4)sc3c2)ccn1` showed a growth at 10 µM of -9%.

Tested on: not listed separately
Test: Antiproliferative activity against human HCT15 cells assessed as cell growth at 10^-5 M after 48 hrs by sulforhodamine B assay
Type: functional
Details: HCT-15, 48 h, read-out: Activity
`CNC(=O)c1cc(Oc2ccc3nc(NC(=O)c4cc(C(F)(F)F)cc(C(F)(F)F)c4)sc3c2)ccn1` gave a growth at 10 µM of 19%.

Tested on: KM12
Test: Antiproliferative activity against human KM12 cells assessed as cell growth at 10^-5 M after 48 hrs by sulforhodamine B assay
Type: functional
Details: KM12, 48 h, read-out: Activity
For `CNC(=O)c1cc(Oc2ccc3nc(NC(=O)c4cc(C(F)(F)F)cc(C(F)(F)F)c4)sc3c2)ccn1`, the growth at 10 µM was 2%.

Tested on: not listed separately
Test: Antiproliferative activity against human SNB75 cells assessed as cell growth at 10^-5 M after 48 hrs by sulforhodamine B assay
Type: functional
Details: SNB-75, 48 h, read-out: Activity
With `CNC(=O)c1cc(Oc2ccc3nc(NC(=O)c4cc(C(F)(F)F)cc(C(F)(F)F)c4)sc3c2)ccn1` the growth at 10 µM was 10%.

Tested on: Malme-3M
Test: Antiproliferative activity against human MALME-3M cells assessed as cell growth at 10^-5 M after 48 hrs by sulforhodamine B assay
Type: functional
Details: read-out: Activity
With `CNC(=O)c1cc(Oc2ccc3nc(NC(=O)c4cc(C(F)(F)F)cc(C(F)(F)F)c4)sc3c2)ccn1` the growth at 10 µM was -17%.

Tested on: M14
Test: Antiproliferative activity against human M14 cells assessed as cell growth at 10^-5 M after 48 hrs by sulforhodamine B assay
Type: functional
Details: M14, 48 h, read-out: Activity
Compound `CNC(=O)c1cc(Oc2ccc3nc(NC(=O)c4cc(C(F)(F)F)cc(C(F)(F)F)c4)sc3c2)ccn1` has a growth at 10 µM of 15%.

Tested on: SK-MEL-2
Test: Antiproliferative activity against human SK-MEL-2 cells assessed as cell growth at 10^-5 M after 48 hrs by sulforhodamine B assay
Type: functional
Details: SK-MEL-2, 48 h, read-out: Activity
For `CNC(=O)c1cc(Oc2ccc3nc(NC(=O)c4cc(C(F)(F)F)cc(C(F)(F)F)c4)sc3c2)ccn1`, the growth at 10 µM was -19%.

Tested on: SK-MEL-28
Test: Antiproliferative activity against human SK-MEL-28 cells assessed as cell growth at 10^-5 M after 48 hrs by sulforhodamine B assay
Type: functional
Details: SK-MEL-28, 48 h, read-out: Activity
With `CNC(=O)c1cc(Oc2ccc3nc(NC(=O)c4cc(C(F)(F)F)cc(C(F)(F)F)c4)sc3c2)ccn1` the growth at 10 µM was 22%.

Tested on: not listed separately
Test: Antiproliferative activity against human UACC257 cells assessed as cell growth at 10^-5 M after 48 hrs by sulforhodamine B assay
Type: functional
Details: UACC-257, 48 h, read-out: Activity
Compound `CNC(=O)c1cc(Oc2ccc3nc(NC(=O)c4cc(C(F)(F)F)cc(C(F)(F)F)c4)sc3c2)ccn1` has a growth at 10 µM of -10%.

Tested on: not listed separately
Test: Antiproliferative activity against human IGROV1 cells assessed as cell growth at 10^-5 M after 48 hrs by sulforhodamine B assay
Type: functional
Details: IGROV-1, 48 h, read-out: Activity
With `CNC(=O)c1cc(Oc2ccc3nc(NC(=O)c4cc(C(F)(F)F)cc(C(F)(F)F)c4)sc3c2)ccn1` the growth at 10 µM was 27%.

Tested on: not listed separately
Test: Antiproliferative activity against human OVCAR3 cells assessed as cell growth at 10^-5 M after 48 hrs by sulforhodamine B assay
Type: functional
Details: OVCAR-3, 48 h, read-out: Activity
Work on `CNC(=O)c1cc(Oc2ccc3nc(NC(=O)c4cc(C(F)(F)F)cc(C(F)(F)F)c4)sc3c2)ccn1` yielded a growth at 10 µM of -19%.

Tested on: not listed separately
Test: Antiproliferative activity against human OVCAR4 cells assessed as cell growth at 10^-5 M after 48 hrs by sulforhodamine B assay
Type: functional
Details: OVCAR-4, 48 h, read-out: Activity
`CNC(=O)c1cc(Oc2ccc3nc(NC(=O)c4cc(C(F)(F)F)cc(C(F)(F)F)c4)sc3c2)ccn1` showed a growth at 10 µM of 10%.

Tested on: not listed separately
Test: Antiproliferative activity against human OVCAR8 cells assessed as cell growth at 10^-5 M after 48 hrs by sulforhodamine B assay
Type: functional
Details: OVCAR-8, 48 h, read-out: Activity
Work on `CNC(=O)c1cc(Oc2ccc3nc(NC(=O)c4cc(C(F)(F)F)cc(C(F)(F)F)c4)sc3c2)ccn1` yielded a growth at 10 µM of 8%.

Tested on: not listed separately
Test: Antiproliferative activity against human SKOV3 cells assessed as cell growth at 10^-5 M after 48 hrs by sulforhodamine B assay
Type: functional
Details: SK-OV-3, 48 h, read-out: Activity
With `CNC(=O)c1cc(Oc2ccc3nc(NC(=O)c4cc(C(F)(F)F)cc(C(F)(F)F)c4)sc3c2)ccn1` the growth at 10 µM was -10%.

Tested on: 786-0
Test: Antiproliferative activity against human 786-0 cells assessed as cell growth at 10^-5 M after 48 hrs by sulforhodamine B assay
Type: functional
Details: 786-0, 48 h, read-out: Activity
Work on `CNC(=O)c1cc(Oc2ccc3nc(NC(=O)c4cc(C(F)(F)F)cc(C(F)(F)F)c4)sc3c2)ccn1` yielded a growth at 10 µM of -9%.

Tested on: A498
Test: Antiproliferative activity against human A498 cells assessed as cell growth at 10^-5 M after 48 hrs by sulforhodamine B assay
Type: functional
Details: A498, 48 h, read-out: Activity
`CNC(=O)c1cc(Oc2ccc3nc(NC(=O)c4cc(C(F)(F)F)cc(C(F)(F)F)c4)sc3c2)ccn1` showed a growth at 10 µM of -35%.

Tested on: not listed separately
Test: Antiproliferative activity against human Caki1 cells assessed as cell growth at 10^-5 M after 48 hrs by sulforhodamine B assay
Type: functional
Details: CAKI-1, 48 h, read-out: Activity
In the case of `CNC(=O)c1cc(Oc2ccc3nc(NC(=O)c4cc(C(F)(F)F)cc(C(F)(F)F)c4)sc3c2)ccn1`, the growth at 10 µM was 2%.

Tested on: SN12C
Test: Antiproliferative activity against human SN12C cells assessed as cell growth at 10^-5 M after 48 hrs by sulforhodamine B assay
Type: functional
Details: read-out: Activity
Work on `CNC(=O)c1cc(Oc2ccc3nc(NC(=O)c4cc(C(F)(F)F)cc(C(F)(F)F)c4)sc3c2)ccn1` yielded a growth at 10 µM of 6%.

Tested on: not listed separately
Test: Antiproliferative activity against human TK10 cells assessed as cell growth at 10^-5 M after 48 hrs by sulforhodamine B assay
Type: functional
Details: TK-10, 48 h, read-out: Activity
Work on `CNC(=O)c1cc(Oc2ccc3nc(NC(=O)c4cc(C(F)(F)F)cc(C(F)(F)F)c4)sc3c2)ccn1` yielded a growth at 10 µM of 8%.

Tested on: not listed separately
Test: Antiproliferative activity against human UO31 cells assessed as cell growth at 10^-5 M after 48 hrs by sulforhodamine B assay
Type: functional
Details: UO-31, 48 h, read-out: Activity
With `CNC(=O)c1cc(Oc2ccc3nc(NC(=O)c4cc(C(F)(F)F)cc(C(F)(F)F)c4)sc3c2)ccn1` the growth at 10 µM was -4%.

Tested on: MCF7
Test: Antiproliferative activity against human MCF7 cells assessed as cell growth at 10^-5 M after 48 hrs by sulforhodamine B assay
Type: functional
Details: MCF7, 48 h, read-out: Activity
`CNC(=O)c1cc(Oc2ccc3nc(NC(=O)c4cc(C(F)(F)F)cc(C(F)(F)F)c4)sc3c2)ccn1` showed a growth at 10 µM of 17%.

Tested on: MDA-MB-231
Test: Antiproliferative activity against human MDA-MB-231 cells assessed as cell growth at 10^-5 M after 48 hrs by sulforhodamine B assay
Type: functional
Details: MDA-MB-231, 48 h, read-out: Activity
Compound `CNC(=O)c1cc(Oc2ccc3nc(NC(=O)c4cc(C(F)(F)F)cc(C(F)(F)F)c4)sc3c2)ccn1` has a growth at 10 µM of -25%.

Tested on: not listed separately
Test: Antiproliferative activity against human Hs 578T cells assessed as cell growth at 10^-5 M after 48 hrs by sulforhodamine B assay
Type: functional
Details: read-out: Activity
In the case of `CNC(=O)c1cc(Oc2ccc3nc(NC(=O)c4cc(C(F)(F)F)cc(C(F)(F)F)c4)sc3c2)ccn1`, the growth at 10 µM was 6%.

Tested on: not listed separately
Test: Antiproliferative activity against human BT549 cells assessed as cell growth at 10^-5 M after 48 hrs by sulforhodamine B assay
Type: functional
Details: BT-549, 48 h, read-out: Activity
`CNC(=O)c1cc(Oc2ccc3nc(NC(=O)c4cc(C(F)(F)F)cc(C(F)(F)F)c4)sc3c2)ccn1` gave a growth at 10 µM of 5%.

Tested on: T47D
Test: Antiproliferative activity against human T47D cells assessed as cell growth at 10^-5 M after 48 hrs by sulforhodamine B assay
Type: functional
Details: read-out: Activity
`CNC(=O)c1cc(Oc2ccc3nc(NC(=O)c4cc(C(F)(F)F)cc(C(F)(F)F)c4)sc3c2)ccn1` showed a growth at 10 µM of -4%.
